From the NIST ThermoML archive (doi:10.1016/j.fluid.2017.09.014)

Test: xn = mol fraction of the nth substance listed
Conditions: Vibrating tube method, x2 = 0.9503

O=S=O [sulfur dioxide] + O=C=O
Conditions | mass density [kg/m3]
322.49 K, 26001 kPa, Fluid (supercritical or subcritical phases) | 875.4
322.49 K, 26517 kPa, Fluid (supercritical or subcritical phases) | 878.8
322.49 K, 27508 kPa, Fluid (supercritical or subcritical phases) | 886.3
322.49 K, 28018 kPa, Fluid (supercritical or subcritical phases) | 889.5
322.49 K, 29025 kPa, Fluid (supercritical or subcritical phases) | 896.4
322.49 K, 29507 kPa, Fluid (supercritical or subcritical phases) | 899.6
322.5 K, 17499 kPa, Fluid (supercritical or subcritical phases) | 793.5
322.5 K, 18503 kPa, Fluid (supercritical or subcritical phases) | 806.6
322.5 K, 19491 kPa, Fluid (supercritical or subcritical phases) | 818.5
322.5 K, 24497 kPa, Fluid (supercritical or subcritical phases) | 864.4
322.5 K, 25003 kPa, Fluid (supercritical or subcritical phases) | 867.7
322.51 K, 11504 kPa, Fluid (supercritical or subcritical phases) | 649.9
322.51 K, 12003 kPa, Fluid (supercritical or subcritical phases) | 672.3
322.51 K, 16502 kPa, Fluid (supercritical or subcritical phases) | 779.1
322.51 K, 17005 kPa, Fluid (supercritical or subcritical phases) | 786.2
322.52 K, 14000 kPa, Fluid (supercritical or subcritical phases) | 731.9
322.52 K, 14504 kPa, Fluid (supercritical or subcritical phases) | 742.9
322.52 K, 15012 kPa, Fluid (supercritical or subcritical phases) | 753.2
322.52 K, 15501 kPa, Fluid (supercritical or subcritical phases) | 761.8
322.52 K, 16003 kPa, Fluid (supercritical or subcritical phases) | 770.9
322.53 K, 12505 kPa, Fluid (supercritical or subcritical phases) | 691.1
322.53 K, 13501 kPa, Fluid (supercritical or subcritical phases) | 720.4
322.54 K, 13000 kPa, Fluid (supercritical or subcritical phases) | 706.7
352.93 K, 202 kPa, Gas | 3
352.93 K, 6001 kPa, Gas | 114.8
352.94 K, 1742 kPa, Gas | 28.6
352.94 K, 2504 kPa, Gas | 41.8
352.94 K, 4003 kPa, Gas | 70.6
352.94 K, 4493 kPa, Gas | 80.5
352.94 K, 6516 kPa, Gas | 127.7
352.94 K, 7017 kPa, Gas | 140.9
352.94 K, 7498 kPa, Fluid (supercritical or subcritical phases) | 154.1
352.94 K, 8038 kPa, Fluid (supercritical or subcritical phases) | 170.3
352.94 K, 9008 kPa, Fluid (supercritical or subcritical phases) | 201.9
352.95 K, 306 kPa, Gas | 4.6
352.95 K, 402 kPa, Gas | 6
352.95 K, 511 kPa, Gas | 7.6
352.95 K, 740 kPa, Gas | 11.4
352.95 K, 1507 kPa, Gas | 24.3
352.95 K, 2002 kPa, Gas | 33
352.95 K, 2248 kPa, Gas | 37
352.95 K, 2800 kPa, Gas | 47.2
352.95 K, 3009 kPa, Gas | 51
352.95 K, 4997 kPa, Gas | 91.5
352.95 K, 5490 kPa, Gas | 102.6
352.95 K, 9230 kPa, Fluid (supercritical or subcritical phases) | 209.5
352.95 K, 12000 kPa, Fluid (supercritical or subcritical phases) | 321.9
352.95 K, 12505 kPa, Fluid (supercritical or subcritical phases) | 346.8
352.95 K, 14502 kPa, Fluid (supercritical or subcritical phases) | 447.3
352.95 K, 15497 kPa, Fluid (supercritical or subcritical phases) | 493.2
352.95 K, 16515 kPa, Fluid (supercritical or subcritical phases) | 535.1
352.95 K, 17520 kPa, Fluid (supercritical or subcritical phases) | 569.4
352.95 K, 19511 kPa, Fluid (supercritical or subcritical phases) | 624.5
352.95 K, 21993 kPa, Fluid (supercritical or subcritical phases) | 677.2
352.95 K, 22493 kPa, Fluid (supercritical or subcritical phases) | 686.4
352.95 K, 23011 kPa, Fluid (supercritical or subcritical phases) | 694.8
352.95 K, 24538 kPa, Fluid (supercritical or subcritical phases) | 717.4
352.95 K, 25002 kPa, Fluid (supercritical or subcritical phases) | 723.7
352.95 K, 31494 kPa, Fluid (supercritical or subcritical phases) | 793.2
352.96 K, 982 kPa, Gas | 15.1
352.96 K, 1248 kPa, Gas | 19.9
352.96 K, 3495 kPa, Gas | 60.3
352.96 K, 8507 kPa, Fluid (supercritical or subcritical phases) | 185.5
352.96 K, 10075 kPa, Fluid (supercritical or subcritical phases) | 238.1
352.96 K, 11001 kPa, Fluid (supercritical or subcritical phases) | 276.4
352.96 K, 12998 kPa, Fluid (supercritical or subcritical phases) | 371.8
352.96 K, 13501 kPa, Fluid (supercritical or subcritical phases) | 397.6
352.96 K, 14004 kPa, Fluid (supercritical or subcritical phases) | 422.3
352.96 K, 15003 kPa, Fluid (supercritical or subcritical phases) | 470.1
352.96 K, 16004 kPa, Fluid (supercritical or subcritical phases) | 514.7
352.96 K, 17006 kPa, Fluid (supercritical or subcritical phases) | 552.6
352.96 K, 19011 kPa, Fluid (supercritical or subcritical phases) | 611.7
352.96 K, 20014 kPa, Fluid (supercritical or subcritical phases) | 636.9
352.96 K, 20490 kPa, Fluid (supercritical or subcritical phases) | 647.4
352.96 K, 20999 kPa, Fluid (supercritical or subcritical phases) | 657.9
352.96 K, 21521 kPa, Fluid (supercritical or subcritical phases) | 668.5
352.96 K, 23524 kPa, Fluid (supercritical or subcritical phases) | 703.1
352.96 K, 24023 kPa, Fluid (supercritical or subcritical phases) | 710.4
352.96 K, 25555 kPa, Fluid (supercritical or subcritical phases) | 731.2
352.96 K, 26036 kPa, Fluid (supercritical or subcritical phases) | 736.4
352.96 K, 27501 kPa, Fluid (supercritical or subcritical phases) | 752.6
352.96 K, 28006 kPa, Fluid (supercritical or subcritical phases) | 758.3
352.96 K, 28507 kPa, Fluid (supercritical or subcritical phases) | 764.2
352.96 K, 29492 kPa, Fluid (supercritical or subcritical phases) | 773.9
352.96 K, 29991 kPa, Fluid (supercritical or subcritical phases) | 779
352.96 K, 31058 kPa, Fluid (supercritical or subcritical phases) | 789.4
352.96 K, 31993 kPa, Fluid (supercritical or subcritical phases) | 797.6
352.96 K, 33014 kPa, Fluid (supercritical or subcritical phases) | 805.8
352.96 K, 33519 kPa, Fluid (supercritical or subcritical phases) | 809.8
352.96 K, 36996 kPa, Fluid (supercritical or subcritical phases) | 835.2
352.97 K, 10506 kPa, Fluid (supercritical or subcritical phases) | 255.3
352.97 K, 11505 kPa, Fluid (supercritical or subcritical phases) | 298.8
352.97 K, 18007 kPa, Fluid (supercritical or subcritical phases) | 583.3
352.97 K, 18500 kPa, Fluid (supercritical or subcritical phases) | 597.8
352.97 K, 26597 kPa, Fluid (supercritical or subcritical phases) | 742.8
352.97 K, 29001 kPa, Fluid (supercritical or subcritical phases) | 768.7
352.97 K, 30512 kPa, Fluid (supercritical or subcritical phases) | 784.7
352.97 K, 32552 kPa, Fluid (supercritical or subcritical phases) | 802.4
352.97 K, 34055 kPa, Fluid (supercritical or subcritical phases) | 814.5
352.97 K, 35014 kPa, Fluid (supercritical or subcritical phases) | 821.4
352.97 K, 35510 kPa, Fluid (supercritical or subcritical phases) | 824.7
352.97 K, 36496 kPa, Fluid (supercritical or subcritical phases) | 831.8
352.97 K, 37499 kPa, Fluid (supercritical or subcritical phases) | 838.7
352.97 K, 38520 kPa, Fluid (supercritical or subcritical phases) | 845.7
352.97 K, 39009 kPa, Fluid (supercritical or subcritical phases) | 848.1
352.98 K, 27043 kPa, Fluid (supercritical or subcritical phases) | 747.4
352.98 K, 34563 kPa, Fluid (supercritical or subcritical phases) | 818.1
352.98 K, 36013 kPa, Fluid (supercritical or subcritical phases) | 828.1
352.98 K, 38023 kPa, Fluid (supercritical or subcritical phases) | 842.1
352.98 K, 39300 kPa, Fluid (supercritical or subcritical phases) | 850.2
352.98 K, 39330 kPa, Fluid (supercritical or subcritical phases) | 850.5
